Measured values published in patent publication EP4806900A2, “RAS INHIBITORS” (Revolution Medicines, Inc., priority 2019, dated 2021).
Several values for one entry are separate records, joined by “and”; a condition that tells them apart may be missing. Equal values may be shown once.

system: NCI-H358 (K-Ras G12C); experiment: CellTiter-Glo cell viability assay, NCI-H358; assay type: cell-based, human; settings: Homo sapiens, NCI-H358, Table 5; read-out: H358 Cell Viability assay data (K-Ras G12C, IC50)
How it was run: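 Compounds dispensed directly onto plated NCI-H358 cells; plates equilibrated to room temperature on day 5 before luminescence read-out. Signal normalized to mean DMSO control (%) and fitted by four-parameter logistic.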

| IC50 [µM] | Structure (SMILES) |
| --- | --- |
| 0.1 to 1 | C=CC(=O)N1CC[C@H](C(=O)N(C)[C@H](C(=O)N[C@H]2Cc3cccc(c3)-c3ccc4c(c3)c(c(-c3cccnc3[C@H](C)OC)n4CC)CC(C)(C)COC(=O)[C@@H]3CCCN(N3)C2=O)C(C)C)C1 [Compound A114] |
| < 0.01 | C=CC(=O)N1CC[C@H](C(=O)N(C)[C@H](C(=O)N[C@H]2Cc3cc(O)cc(c3)-c3ccc4c(c3)c(c(-c3cnn(C)c3[C@H](C)OC)n4CC)CC(C)(C)COC(=O)[C@@H]3CCCN(N3)C2=O)C(C)C)C1 [Compound A166] |
| 0.1 to 1 | C=CC(=O)N1CC[C@H](C(=O)N(C)[C@H](C(=O)N[C@H]2C[C@H]3CN(CCO3)c3ccc4c(c3)c(c(-c3cccnc3[C@H](C)OC)n4CC)CC(C)(C)COC(=O)[C@@H]3CCCN(N3)C2=O)C(C)C)C1 [Compound A378] |
| 0.01 to 0.1 | CO[C@@H](C)c1ncccc1-c1c2c3cc(ccc3n1CC(F)(F)F)-c1nnc(o1)C[C@H](NC(=O)[C@H](C(C)C)N(C)C(=O)[C@H]1CCN(C(=O)C#CC(C)(C)N3CCC3)C1)C(=O)N1CCC[C@H](N1)C(=O)OCC(C)(C)C2 [Compound A423] |
| 0.1 to 1 | C=CC(=O)N1CC[C@H](C(=O)N(C)[C@H](C(=O)N[C@H]2CC3=NN=C(O3)c3ccc4c(c3)c(c(-c3cccnc3[C@H](C)OCC)n4CC(F)(F)F)CC(C)(C)COC(=O)[C@@H]3CCCN(N3)C2=O)C(C)C)C1 [Compound A424] |

same assay, conditions: Homo sapiens, NCI-H358, read-out: H358 Cell Viability assay data (K-Ras G12C, IC50, uM), Table 5

| Structure (SMILES) | IC50 [µM] |
| --- | --- |
| C=CC(=O)N1CC[C@H](C(=O)N(C)[C@H](C(=O)N[C@H]2Cc3cc(O)cc(c3)-c3ccc4c(c3)c(c(-c3cnccc3[C@H](C)OC)n4CC)CC(C)(C)COC(=O)[C@@H]3CCCN(N3)C2=O)C(C)C)C1 [Compound A112] | < 0.01 |
| CCn1c(-c2cnccc2COC)c2c3cc(ccc31)-c1ccnc(c1)C[C@H](NC(=O)[C@H](C(C)C)N(C)C(=O)[C@H]1CCN(C(=O)C#CCN(C)C)C1)C(=O)N1CCC[C@H](N1)C(=O)OCC(C)(C)C2 [Compound A130] | 0.01 to 0.1 |
| C=CS(=O)(=O)N1CC[C@H](C(=O)N(C)[C@H](C(=O)N[C@H]2Cc3cc(O)cc(c3)-c3ccc4c(c3)c(c(-c3cccnc3[C@H](C)OC)n4CC)CC(C)(C)COC(=O)[C@@H]3CCCN(N3)C2=O)C(C)C)C1 [Compound A132] | < 0.01 |
| CCn1c(-c2cccnc2COC)c2c3cc(ccc31)-c1cc(O)cc(c1)C[C@H](NC(=O)[C@H](C(C)C)N(C)C(=O)[C@H]1CCN(C(=O)C#CCOC)C1)C(=O)N1CCC[C@H](N1)C(=O)OCC(C)(C)C2 [Compound A135] | < 0.01 |
| C=CC(=O)N1CC[C@H](C(=O)N(C)[C@H](C(=O)N[C@H]2Cc3cc(O)cc(c3)-c3ccc4c(c3)c(c(-c3cc(CN(C)C)cnc3COC)n4CC)CC(C)(C)COC(=O)[C@@H]3CCCN(N3)C2=O)C(C)C)C1 [Compound A149] | 0.01 to 0.1 |
| CCn1c(-c2cccnc2COC)c2c3cc(ccc31)-c1cc(C)cc(c1)C[C@H](NC(=O)[C@H](C(C)C)N(C)C(=O)[C@H]1CCN(C(=O)C#CCN(C)C)C1)C(=O)N1CCC[C@H](N1)C(=O)OCC(C)(C)C2 [Compound A157] | < 0.01 |
| C=CC(=O)N1CC[C@H](C(=O)N(C)[C@H](C(=O)N[C@H]2Cc3cc(O)cc(c3)-c3ccc4c(c3)c(c(-c3cccnc3)n4C3CC3)CC(C)(C)COC(=O)[C@@H]3CCCN(N3)C2=O)C(C)C)C1 [Compound A160] | 0.1 to 1 |
| CCn1c(-c2cccnc2COC)c2c3cc(ccc31)-c1cc(O)cc(c1)C[C@H](NC(=O)[C@H](C(C)C)N(C)C(=O)[C@H]1CCN(C(=O)/C=C\CN(C)C)C1)C(=O)N1CCC[C@H](N1)C(=O)OCC(C)(C)C2 [Compound A161] | > 1 |
| C=CC(=O)N1CC[C@H](C(=O)N(C)[C@H](C(=O)N[C@H]2Cc3cc(O)cc(c3)-c3ccc4c(c3)c(c(-c3cc(C)cnc3[C@H](C)OC)n4CC)CC(C)(C)COC(=O)[C@@H]3CCCN(N3)C2=O)C(C)C)C1 [Compound A167] | < 0.01 |
| CCn1c(-c2cccnc2[C@H](C)OC)c2c3cc(ccc31)-c1cc(O)cc(c1)C[C@H](NC(=O)[C@H](C(C)C)N(C)C(=O)[C@H]1CCN(C(=O)C#CCN3CCOCC3)C1)C(=O)N1CCC[C@H](N1)C(=O)OCC(C)(C)C2 [Compound A182] | < 0.01 |
| C=CC(=O)Nc1ccc(C(=O)N(C)[C@H](C(=O)N[C@H]2Cc3cc(O)cc(c3)-c3ccc4c(c3)c(c(-c3cccnc3[C@H](C)OC)n4CC)CC(C)(C)COC(=O)[C@@H]3CCCN(N3)C2=O)C(C)C)cn1 [Compound A250] | < 0.01 |
| C=CC(=O)N1CC[C@H](C(=O)N(C)[C@H](C(=O)N[C@H]2Cc3nc(cs3)-c3ccc4c(n3)c(c(-c3cccnc3[C@H](C)OC)n4CC)CC(C)(C)COC(=O)[C@@H]3CCCN(N3)C2=O)C(C)C)C1 [Compound A347, (2S)-N-[(7S,13S)-21-ethyl-20-{2-[(1S)-1-methoxyethyl]pyridin-3-yl}-17,17-dimethyl-8,14-dioxo-15-oxa-4-thia-9,21,25,27,28-pentaazapentacyclo[17.5.2.1^{2,5}.1^{9,13}.0^{22,26}]octacosa-1(25),2,5(28),19,22(26),23-hexaen-7-yl]-3-methyl-2-{N-methyl-1-[(3S)-1-(prop-2-enoyl)pyrrolidin-3-yl]formamido}butanamide] | 0.1 to 1 |
| CCn1c(-c2cccnc2[C@H](C)OC)c2c3cc(ccc31)-c1csc(n1)C[C@H](NC(=O)[C@H](C(C)C)N(C)C(=O)N(C)C1CN(C(=O)/C=C/C(C)(C)O)C1)C(=O)N1CCC[C@H](N1)C(=O)OCC(C)(C)C2 [Compound A350] | 0.1 to 1 |
| CCn1c(-c2cccnc2C(C)OC)c2c3cc(ccc31)-c1cccc(c1)CC(NC(=O)C(C(C)C)N1CCC3(CCN(C(=O)C#CC(C)(C)N4CCC4)C3)C1=O)C(=O)N1CCCC(N1)C(=O)OCC(C)(C)C2 (centres unmarked) [Compound A365] | < 0.01 |
| CCn1c(-c2cccnc2[C@H](C)OC)c2c3cc(ccc31)-c1csc(n1)C[C@H](NC(=O)[C@H](C(C)C)N(C)C(=O)N1CC(N(C)C(=O)C#CC(C)(C)N3CCC3)C1)C(=O)N1CCC[C@H](N1)C(=O)OCC(C)(C)C2 [Compound A379] | < 0.01 |
| C=CC(=O)N1CCN(C(=O)N(C)[C@H](C(=O)N[C@H]2Cc3nc(cs3)-c3ccc4c(c3)c(c(-c3cccnc3[C@H](C)OC)n4CC(F)(F)F)CC(C)(C)COC(=O)[C@@H]3CCCN(N3)C2=O)C(C)C)CC1 [Compound A464] | < 0.01 |

same assay, conditions: Table 5; read-out: H358 Cell Viability assay data (K-Ras G12C, IC50)

| IC50 | Structure (SMILES) |
| --- | --- |
| 0.01 to 0.1 µM | CCn1c(-c2cccnc2COC)c2c3cc(ccc31)-c1cc(O)cc(c1)C[C@H](NC(=O)[C@H](C(C)C)N(C)C(=O)[C@H]1CCN(C(=O)C#CCN3CCOCC3)C1)C(=O)N1CCC[C@H](N1)C(=O)OCC(C)(C)C2 [Compound A95, (2S)-N-[(8S,14S)-22-ethyl-4-hydroxy-21-[2-(methoxymethyl)pyridin-3-yl]-18,18-dimethyl-9,15-dioxo-16-oxa-10,22,28-triazapentacyclo[18.5.2.1^2,^6.1^10,^14.0^23,^27]nonacosa-1(26),2,4,6(29),20,23(27),24-heptaen-8-yl]-3-methyl-2-{N-methyl-1-[(3S)-1-[4-(morpholin-4-yl)but-2-ynoyl]pyrrolidin-3-yl]formamido}butanamide] |
| < 0.01 µM | CCn1c(-c2cccnc2COC)c2c3cc(ccc31)-c1cc(O)cc(c1)C[C@H](NC(=O)[C@H](C(C)C)N(C)C(=O)[C@H]1CCN(C(=O)C#CCN(C)C)C1)C(=O)N1CCC[C@H](N1)C(=O)OCC(C)(C)C2 [Compound A96] |
| 0.01 to 0.1 µM | CCn1c(-c2cccnc2COC)c2c3cc(ccc31)-c1cc(O)cc(c1)C[C@H](NC(=O)[C@H](C(C)C)N(C)C(=O)C1CN(C(=O)C#CCN(C)C)C1)C(=O)N1CCC[C@H](N1)C(=O)OCC(C)(C)C2 [Compound A97] |
| 0.01 to 0.1 µM | C=CC(=O)N1CC[C@H](C(=O)N(C)[C@H](C(=O)N[C@H]2Cc3cc(O)cc(c3)-c3ccc4c(c3)c(c(-c3ccc(C5CCN(C)CC5)nc3)n4CC)CC(C)(C)COC(=O)[C@@H]3CCCN(N3)C2=O)C(C)C)C1 [Compound A98] |
| 0.01 to 0.1 µM | C=CC(=O)N1CC[C@H](C(=O)N(C)[C@H](C(=O)N[C@H]2Cc3cc(O)cc(c3)-c3ccc4c(c3)c(c(-c3cnn(C)c3)n4CC)CC(C)(C)COC(=O)[C@@H]3CCCN(N3)C2=O)C(C)C)C1 [Compound A99] |
| 0.1 to 1 µM | C=CC(=O)N1CC[C@H](C(=O)N(C)[C@H](C(=O)N[C@H]2Cc3cc(O)cc(c3)-c3ccc4c(c3)c(c(-c3cn(C)cn3)n4CC)CC(C)(C)COC(=O)[C@@H]3CCCN(N3)C2=O)C(C)C)C1 [Compound A113] |
| < 0.01 µM and 0.01 to 0.1 µM | CC#CC(=O)N1CC[C@H](C(=O)N(C)[C@H](C(=O)N[C@H]2Cc3cc(O)cc(c3)-c3ccc4c(c3)c(c(-c3cccnc3[C@H](C)OC)n4CC)CC(C)(C)COC(=O)[C@@H]3CCCN(N3)C2=O)C(C)C)C1 [Compound A145, (2S)-2-{1-[(3S)-1-(but-2-ynoyl)pyrrolidin-3-yl]-N-methylformamido}-N-[(8S,14S,20M)-22-ethyl-4-hydroxy-21-{2-[(1S)-1-methoxyethyl]pyridin-3-yl}-18,18-dimethyl-9,15-dioxo-16-oxa-10,22,28-triazapentacyclo[18.5.2.1^2,^6.1^10,^14.0^23,^27]nonacosa-1(26),2,4,6(29),20,23(27),24-heptaen-8-yl]-3-methylbutanamide] |
| < 0.01 µM and 0.01 to 0.1 µM | CCn1c(-c2cncnc2C(C)C)c2c3cc(ccc31)-c1cc(O)cc(c1)C[C@H](NC(=O)[C@H](C(C)C)N(C)C(=O)[C@H]1CCN(C(=O)C#CCN(C)C)C1)C(=O)N1CCC[C@H](N1)C(=O)OCC(C)(C)C2 [Compound A155] |
| 0.01 to 0.1 µM | C=CC(=O)N1CC2CCC1CN2C(=O)N(C)[C@H](C(=O)N[C@H]1Cc2nc(cs2)-c2ccc3c(c2)c(c(-c2cccnc2[C@H](C)OC)n3CC)CC(C)(C)COC(=O)[C@@H]2CCCN(N2)C1=O)C(C)C [Compound A420] |

same assay, conditions: read-out: H358 Cell Viability assay data (K-Ras G12C, IC50); Table 5

| Structure (SMILES) | IC50 [µM] |
| --- | --- |
| C=CC(=O)Nc1ccc(C(=O)N(C)[C@H](C(=O)N[C@H]2Cc3cc(O)cc(c3)-c3ccc4c(c3)c(c(-c3cccnc3[C@H](C)OC)n4CC)CC(C)(C)COC(=O)[C@@H]3CCCN(N3)C2=O)C(C)C)cn1 [Compound A336] | < 0.01 |
| C=CC(=O)N1CCN(C(=O)N(C)[C@H](C(=O)N[C@H]2Cc3nc(cs3)-c3ccc4c(c3)c(c(-c3cccnc3[C@H](C)OC)n4CC(F)(F)F)CC(C)(C)COC(=O)[C@@H]3CCCN(N3)C2=O)C(C)C)CC1 [Compound A465] | < 0.01 |
